Experimental data as given in ChEMBL document CHEMBL1131993, “Binding affinities of 3-(3-phenylisoxazol-5-yl)methylidene-1-azabicycles to acetylcholine receptors” (Bioorg Med Chem Lett, 1999).

Key:
[1] = biological target: T1, Muscarinic acetylcholine receptor M2 (Homo sapiens) (UniProt P08172); assay: Ability to displace [3H]N-methylscopolamine binding to M2 human recombinant muscarinic receptor in CHO cells at concentration 10 uM; format: cell-based
T1 sequence (whole entry): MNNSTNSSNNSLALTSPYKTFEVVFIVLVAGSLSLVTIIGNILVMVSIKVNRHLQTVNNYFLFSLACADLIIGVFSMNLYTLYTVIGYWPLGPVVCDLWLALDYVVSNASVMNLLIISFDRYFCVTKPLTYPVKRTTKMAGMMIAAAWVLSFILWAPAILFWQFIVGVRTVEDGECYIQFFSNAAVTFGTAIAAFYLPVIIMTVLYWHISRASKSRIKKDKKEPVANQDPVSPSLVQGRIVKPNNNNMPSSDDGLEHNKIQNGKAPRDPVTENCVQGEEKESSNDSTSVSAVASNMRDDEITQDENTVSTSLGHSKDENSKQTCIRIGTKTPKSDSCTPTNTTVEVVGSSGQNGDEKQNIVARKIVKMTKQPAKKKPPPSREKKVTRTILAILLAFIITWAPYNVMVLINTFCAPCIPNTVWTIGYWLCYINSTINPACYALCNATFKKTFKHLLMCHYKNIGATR

[2] = biological target: T2, Acetylcholine receptor subunit delta (Torpedo californica) (UniProt P02718); assay: Ability to displace [3H]cytisine binding to Nicotinic acetylcholine receptor in synaptic membrane fractions from rat cerebral cortices at a concentration of 10 uM.; format: cell membranes; details: target entry is the homologue from another species
T2 sequence (whole entry): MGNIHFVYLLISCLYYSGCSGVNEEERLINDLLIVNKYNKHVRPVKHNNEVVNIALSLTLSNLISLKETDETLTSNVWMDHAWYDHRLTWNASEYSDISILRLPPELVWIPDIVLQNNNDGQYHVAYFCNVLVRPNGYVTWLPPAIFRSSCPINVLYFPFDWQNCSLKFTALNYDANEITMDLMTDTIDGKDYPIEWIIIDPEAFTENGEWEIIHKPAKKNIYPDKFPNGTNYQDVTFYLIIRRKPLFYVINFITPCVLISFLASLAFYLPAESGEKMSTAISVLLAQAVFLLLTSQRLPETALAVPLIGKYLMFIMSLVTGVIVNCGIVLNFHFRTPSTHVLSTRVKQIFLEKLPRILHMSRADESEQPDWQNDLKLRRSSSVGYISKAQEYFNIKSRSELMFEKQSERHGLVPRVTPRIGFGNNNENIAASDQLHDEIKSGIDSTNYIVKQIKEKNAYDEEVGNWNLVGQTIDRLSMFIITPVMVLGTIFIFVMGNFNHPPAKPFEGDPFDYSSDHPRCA

[3] = biological target: Muscarinic acetylcholine receptor M3 (Homo sapiens) (UniProt P20309); assay: Ability to displace [3H]N-methylscopolamine binding to M3 human recombinant muscarinic receptor in CHO cells at concentration 10 uM; format: cell-based
Chain of Muscarinic acetylcholine receptor M3 (Homo sapiens) (P20309 whole entry, looked up): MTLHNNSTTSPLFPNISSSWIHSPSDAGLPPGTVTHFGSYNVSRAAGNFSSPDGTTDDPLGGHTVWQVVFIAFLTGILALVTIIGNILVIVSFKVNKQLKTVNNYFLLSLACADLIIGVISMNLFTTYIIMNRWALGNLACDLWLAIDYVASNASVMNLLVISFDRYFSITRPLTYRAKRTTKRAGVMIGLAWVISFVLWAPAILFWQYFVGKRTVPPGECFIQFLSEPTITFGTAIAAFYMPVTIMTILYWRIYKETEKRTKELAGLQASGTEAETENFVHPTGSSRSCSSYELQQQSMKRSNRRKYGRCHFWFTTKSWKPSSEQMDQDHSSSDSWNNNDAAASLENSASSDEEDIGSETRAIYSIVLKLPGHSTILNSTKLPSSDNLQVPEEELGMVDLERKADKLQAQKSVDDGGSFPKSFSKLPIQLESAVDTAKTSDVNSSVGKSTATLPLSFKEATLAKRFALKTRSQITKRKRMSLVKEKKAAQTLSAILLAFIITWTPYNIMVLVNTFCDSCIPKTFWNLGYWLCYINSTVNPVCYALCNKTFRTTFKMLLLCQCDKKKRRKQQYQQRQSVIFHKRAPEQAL

[4] = biological target: T1, Muscarinic acetylcholine receptor M2 (Homo sapiens); assay: Ability to displace [3H]N-methylscopolamine binding to M2 human recombinant muscarinic receptor in CHO cells at concentration 1 uM; format: cell-based
[5] = biological target: Neuronal acetylcholine receptor; assay: The compound was tested for its binding affinity against Nicotinic acetylcholine receptor in synaptic membrane fractions from rat cerebral cortices.; format: cell membranes
[6] = biological target: T3, Muscarinic acetylcholine receptor M1 (Homo sapiens) (UniProt P11229); assay: Ability to displace [3H]N-methylscopolamine binding to M1 human recombinant muscarinic receptor in CHO cells at concentration 10 uM; format: cell-based
T3 sequence (whole entry): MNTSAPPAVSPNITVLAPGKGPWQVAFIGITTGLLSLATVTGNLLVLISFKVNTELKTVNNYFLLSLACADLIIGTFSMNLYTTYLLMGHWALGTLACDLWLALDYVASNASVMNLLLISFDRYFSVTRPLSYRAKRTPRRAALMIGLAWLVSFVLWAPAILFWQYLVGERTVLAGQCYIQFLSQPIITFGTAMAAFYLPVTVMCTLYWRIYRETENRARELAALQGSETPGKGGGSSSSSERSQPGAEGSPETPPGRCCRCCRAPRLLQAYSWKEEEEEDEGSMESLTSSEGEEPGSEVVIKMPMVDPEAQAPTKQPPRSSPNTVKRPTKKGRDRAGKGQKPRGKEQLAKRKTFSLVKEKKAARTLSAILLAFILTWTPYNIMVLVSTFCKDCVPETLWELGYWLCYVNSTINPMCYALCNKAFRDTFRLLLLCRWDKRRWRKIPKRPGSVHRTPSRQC

[7] = biological target: T3, Muscarinic acetylcholine receptor M1 (Homo sapiens); assay: Ability to displace [3H]N-methylscopolamine binding to M1 human recombinant muscarinic receptor in CHO cells at concentration 1 uM; format: cell-based
[8] = biological target: Muscarinic acetylcholine receptor M3 (Homo sapiens) (UniProt P20309); assay: Ability to displace [3H]N-methylscopolamine binding to M3 human recombinant muscarinic receptor in CHO cells at concentration 1 uM; format: cell-based
[9] = biological target: T4, Neuronal acetylcholine receptor subunit alpha-7 (Rattus norvegicus, UniProt Q05941); assay: The compound was tested for its binding affinity against nicotinic receptor in synaptic membrane fractions from rat cerebral cortices.; format: cell membranes
T4 sequence (Q05941 whole entry): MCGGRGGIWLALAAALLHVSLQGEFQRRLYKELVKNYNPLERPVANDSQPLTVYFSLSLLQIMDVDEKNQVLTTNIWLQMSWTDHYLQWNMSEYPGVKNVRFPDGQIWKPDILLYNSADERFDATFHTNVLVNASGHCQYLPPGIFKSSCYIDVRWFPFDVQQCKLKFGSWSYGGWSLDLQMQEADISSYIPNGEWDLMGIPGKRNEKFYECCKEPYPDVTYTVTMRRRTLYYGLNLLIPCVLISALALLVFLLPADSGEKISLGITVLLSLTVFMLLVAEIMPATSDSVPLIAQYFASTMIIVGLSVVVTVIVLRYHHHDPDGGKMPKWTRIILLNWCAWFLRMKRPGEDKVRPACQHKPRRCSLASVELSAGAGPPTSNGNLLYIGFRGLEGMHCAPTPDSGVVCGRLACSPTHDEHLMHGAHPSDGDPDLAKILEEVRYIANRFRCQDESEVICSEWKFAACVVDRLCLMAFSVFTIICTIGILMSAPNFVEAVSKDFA

[10] = biological target: Neuronal acetylcholine receptor (Rattus norvegicus) (UniProt P04757+P09483+P12389+P12390+P12392+P43144+Q9JLB5+P12391+P43143+P20420+Q05941); assay: Ability to displace [3H]cytisine binding to nicotinic receptor in synaptic membrane fractions from rat cerebral cortices at a concentration of 10 uM.; format: cell membranes
[11] = biological target: T4, Neuronal acetylcholine receptor subunit alpha-7; assay: Compound was tested for its binding affinity against nicotinic receptor in synaptic membrane fractions from rat cerebral cortices.; format: cell membranes
[12] = biological target: T5, Muscarinic acetylcholine receptor M1 (Homo sapiens, UniProt P11229); assay: Compound was tested for its binding affinity against M1 human recombinant muscarinic receptor in CHO cells.; format: cell-based
T5 sequence (P11229 whole entry): T3 sequence (whole entry)

| SMILES | inhibition [1] [%] | inhibition [2] [%] | inhibition [3] [%] | inhibition [4] [%] | IC50 [5] [nM] | inhibition [6] [%] | inhibition [7] [%] | inhibition [8] [%] | IC50 [9] [nM] | inhibition [10] [%] | IC50 [11] [nM] | IC50 [12] [nM] |
| --- | --- | --- | --- | --- | --- | --- | --- | --- | --- | --- | --- | --- |
| Nc1ccc(-c2cc(/C=C3/CN4CCC3CC4)on2)cc1 | 30 | 94 | 19 | 5 | 709 | 86 | 33 | 1 |  |  |  |  |
| Oc1ccc(-c2cc(/C=C3/CN4CCC3CC4)on2)cc1O | 43 | 95 | 39 | 12 | 486 | 59 | 13 | 5 |  |  |  |  |
| Oc1ccc(-c2cc(/C=C3/CN4CCC3CC4)on2)cc1 | 17 |  | 14 | 3 |  | 65 | 6 | 3 | 695 | 93 |  |  |
| N#Cc1ccc(-c2cc(/C=C3\CN4CCC3CC4)on2)cc1 | 32 |  | 31 | 6 |  | 22 | 2 | 9 | > 10 | 83 |  |  |
| Oc1ccc(-c2cc(/C=C3\CN4CCC3CC4)on2)cc1O | 7 | 88 | 0 | 0 |  | 8 | 0 | 0 |  |  |  |  |
| N#Cc1ccc(-c2cc(/C=C3/CN4CCC3CC4)on2)cc1 | 23 |  | 26 | 0 |  | 61 | 11 | 1 | 803 | 92 |  |  |
| Cc1cc(/C=C2\CN3CCC2CC3)on1 |  |  |  |  |  |  |  |  |  |  | 12 | ~10000 |
